Measured values published in PubChem BioAssay AID248 (DTP/NCI, 2004).
Toxic doses and inconclusive results are not listed. Cut-off read from the data, not from the text of the source: active = T/C of 150% or more; inactive = T/C below 125%.

Test system: L1210 leukemia ip in BDF1 mice, survival T/C
Experiment: NCI In Vivo Anticancer Drug Screen. Data for tumor model L1210 Leukemia (intraperitoneal) in B6D2F1 (BDF1) mice
Settings: endpoint: mean survival time, higher = longer survival
How it was run: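 Value reflects the ratio of survival in compound-treated mice to survival in vehicle-treated controls, with both groups carrying the same transplanted tumor.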

[1] = dose: 100.0 mg/kg/injection, schedule: Q01DX001 (ip), vehicle: other
[2] = dose: 200.0 mg/kg/injection, schedule: Q01DX001 (ip), vehicle: other
[3] = dose: 400.0 mg/kg/injection, schedule: Q01DX001 (ip), vehicle: other
[4] = dose: 75.0 mg/kg/injection, schedule: Q01DX001 (ip), vehicle: saline
[5] = dose: 150.0 mg/kg/injection, schedule: Q01DX001 (ip), vehicle: saline
[6] = dose: 300.0 mg/kg/injection, schedule: Q01DX001 (ip), vehicle: saline
[7] = dose: 100.0 mg/kg/injection, schedule: Q04DX002 (ip), vehicle: Klucel (hydroxypropylcellulose) (HPC)
[8] = dose: 200.0 mg/kg/injection, schedule: Q04DX002 (ip), vehicle: Klucel (hydroxypropylcellulose) (HPC)
[9] = dose: 100.0 mg/kg/injection, schedule: Q04DX003 (ip), vehicle: Klucel (hydroxypropylcellulose) (HPC)
[10] = dose: 200.0 mg/kg/injection, schedule: Q04DX003 (ip), vehicle: Klucel (hydroxypropylcellulose) (HPC)
[11] = dose: 400.0 mg/kg/injection, schedule: Q04DX003 (ip), vehicle: Klucel (hydroxypropylcellulose) (HPC)
[12] = dose: 100.0 mg/kg/injection, schedule: Q01DX009 (ip), vehicle: Klucel (hydroxypropylcellulose) (HPC)
[13] = dose: 200.0 mg/kg/injection, schedule: Q01DX009 (ip), vehicle: Klucel (hydroxypropylcellulose) (HPC)
[14] = dose: 400.0 mg/kg/injection, schedule: Q01DX009 (ip), vehicle: Klucel (hydroxypropylcellulose) (HPC)

Measured: T/C

CCC[CH2][Sn](=[S])[CH2]CCC
inactive: dose: 0.69 mg/kg/injection, schedule: Q01DX009 (ip), vehicle: other 98 % of control | dose: 0.78 mg/kg/injection, schedule: Q01DX009 (ip), vehicle: saline 93 % of control | dose: 1.04 mg/kg/injection, schedule: Q01DX009 (ip), vehicle: other 95 % of control | dose: 1.56 mg/kg/injection, schedule: Q01DX009 (ip), vehicle: other 96 % of control | dose: 1.56 mg/kg/injection, schedule: Q01DX009 (ip), vehicle: saline 112 % of control | dose: 2.34 mg/kg/injection, schedule: Q01DX009 (ip), vehicle: other 107 % of control | dose: 3.12 mg/kg/injection, schedule: Q01DX009 (ip), vehicle: saline 114 % of control | dose: 3.13 mg/kg/injection, schedule: Q01DX009 (ip), vehicle: other 105 % of control | dose: 6.25 mg/kg/injection, schedule: Q01DX009 (ip), vehicle: saline 122 % of control | dose: 12.5 mg/kg/injection, schedule: Q01DX009 (ip), vehicle: other 88 % of control | dose: 12.5 mg/kg/injection, schedule: Q04DX003 (ip), vehicle: other 98 % of control | dose: 100.0 mg/kg/injection, schedule: Q01DX001 (ip), vehicle: carboxymethylcellulose (CMC) 115 % of control | dose: 200.0 mg/kg/injection, schedule: Q01DX001 (ip), vehicle: carboxymethylcellulose (CMC) 102 % of control | dose: 400.0 mg/kg/injection, schedule: Q01DX001 (ip), vehicle: carboxymethylcellulose (CMC) 86 % of control

O=NN(CCCl)C(=O)Nc1cc2c3ccccc3ccc2c2ccccc12
inactive: dose: 177.0 mg/kg/injection, schedule: Q01DX009 (ip), vehicle: carboxymethylcellulose (CMC) 123 % of control

O=C(OCCC/C(=C\c1cc2ccccc2c2ccccc12)[N+](=O)[O-])c1ccccc1
inactive: [1] 87 % of control | [2] 92 % of control | [3] 91 % of control

CC12CCCCC1CC(=O)CC2 (stereo not drawn)
inactive: dose: 100.0 mg/kg/injection, schedule: Q04DX002 (ip), vehicle: saline with Tween-80 99 % of control | dose: 200.0 mg/kg/injection, schedule: Q04DX002 (ip), vehicle: saline with Tween-80 86 % of control | dose: 400.0 mg/kg/injection, schedule: Q04DX002 (ip), vehicle: saline with Tween-80 96 % of control

O=C1/C(=C/c2ccccc2)CCC2C1CCCC21OCCO1 (stereo not drawn)
inactive: [4] 97 % of control | dose: 75.0 mg/kg/injection, schedule: Q04DX003 (ip), vehicle: saline 100 % of control | [5] 95 % of control | dose: 150.0 mg/kg/injection, schedule: Q04DX003 (ip), vehicle: saline 103 % of control | [6] 107 % of control | dose: 300.0 mg/kg/injection, schedule: Q04DX003 (ip), vehicle: saline 101 % of control

COC1OC2COC(c3ccccc3)OC2C(OC(C)=O)C1OS(=O)(=O)c1ccc(C)cc1 (stereo not drawn)
inactive: [7] 109 % of control | [8] 88 % of control | dose: 400.0 mg/kg/injection, schedule: Q04DX002 (ip), vehicle: Klucel (hydroxypropylcellulose) (HPC) 109 % of control

COC(=O)c1nc(Cl)nc(SC)c1Cl
inactive: [9] 96 % of control | [10] 110 % of control | [11] 96 % of control

c1cc2ccc1CCc1ccc(cc1)CC2
inactive: dose: 100.0 mg/kg/injection, schedule: Q01DX001 (ip), vehicle: saline with Tween-80 100 % of control | dose: 100.0 mg/kg/injection, schedule: Q01DX009 (ip), vehicle: saline sonified 94 % of control | dose: 200.0 mg/kg/injection, schedule: Q01DX001 (ip), vehicle: saline with Tween-80 102 % of control | dose: 200.0 mg/kg/injection, schedule: Q01DX009 (ip), vehicle: saline sonified 99 % of control | dose: 400.0 mg/kg/injection, schedule: Q01DX001 (ip), vehicle: saline with Tween-80 98 % of control | dose: 400.0 mg/kg/injection, schedule: Q01DX009 (ip), vehicle: saline sonified 93 % of control

CCc1cccc(CC)c1NC(=O)NS(=O)(=O)c1ccccc1
inactive: dose: 100.0 mg/kg/injection, schedule: Q01DX009 (ip), vehicle: saline with Tween-80 91 % of control | dose: 200.0 mg/kg/injection, schedule: Q01DX009 (ip), vehicle: saline with Tween-80 88 % of control

N#CC1(c2ccccc2)OC1(c1ccccc1)c1ccccc1 (stereo not drawn)
inactive: [12] 89 % of control | [7] 88 % of control | [13] 91 % of control | [8] 92 % of control | [14] 88 % of control

COc1cc(OC)c2c(C)c(C#N)oc2c1
inactive: [9] 97 % of control | [10] 97 % of control | [11] 98 % of control

NC1(C(=O)O)CC(O)(c2ccccc2)C(O)(c2ccccc2)C1 (stereo not drawn)
inactive: dose: 100.0 mg/kg/injection, schedule: Q01DX001 (ip), vehicle: saline 88 % of control | dose: 200.0 mg/kg/injection, schedule: Q01DX001 (ip), vehicle: saline 93 % of control

CCCCc1cnc(NCCCC(N)C(=O)O)nc1 (stereo not drawn)
inactive: dose: 25.0 mg/kg/injection, schedule: Q04DX002 (ip), vehicle: saline 100 % of control | dose: 50.0 mg/kg/injection, schedule: Q04DX002 (ip), vehicle: saline 95 % of control | dose: 100.0 mg/kg/injection, schedule: Q04DX002 (ip), vehicle: saline 92 % of control

CCC1(CCCCCl)OCCO1
inactive: [12] 103 % of control | [13] 97 % of control | [14] 103 % of control

CN=C(NC)c1ccc(NC(=O)Nc2ccc(NC(=O)Nc3ccc(C(=NC)NC)cc3)cc2)cc1
inactive: dose: 3.94 mg/kg/injection, schedule: Q01DX Z (ip), vehicle: saline 108 % of control | dose: 4.0 mg/kg/injection, schedule: Q01DX Z (ip), vehicle: carboxymethylcellulose (CMC) 107 % of control | dose: 5.9 mg/kg/injection, schedule: Q01DX Z (ip), vehicle: saline 114 % of control | dose: 8.0 mg/kg/injection, schedule: Q01DX Z (ip), vehicle: carboxymethylcellulose (CMC) 121 % of control | dose: 8.86 mg/kg/injection, schedule: Q01DX Z (ip), vehicle: saline 120 % of control | dose: 30.0 mg/kg/injection, schedule: Q01DX Z (ip), vehicle: carboxymethylcellulose (CMC) 101 % of control | dose: 45.0 mg/kg/injection, schedule: Q01DX Z (ip), vehicle: saline 115 % of control

CC1(C#N)CCC(CCc2ccccc2)C(=O)C1 (stereo not drawn)
inactive: [4] 109 % of control | dose: 75.0 mg/kg/injection, schedule: Q01DX009 (ip), vehicle: saline 99 % of control | [5] 95 % of control | dose: 150.0 mg/kg/injection, schedule: Q01DX009 (ip), vehicle: saline 94 % of control | [6] 92 % of control | dose: 300.0 mg/kg/injection, schedule: Q01DX009 (ip), vehicle: saline 96 % of control

O=C(O)C1C2C=CC21 (stereo not drawn)
inactive: [1] 96 % of control | [2] 101 % of control | [3] 102 % of control
